One data set has as its system E. coli. Kind of data set: Lysis assay. It counts as cell-based, Escherichia coli. The settings on record: ten times the MIC, culture OD600 = 1.0, 24 h. How it is done:
(§1) An overnight culture of E. coli TOP10 cells was diluted 1:10,000 in MHB and incubated at 37 °C with agitation at 180 rpm for 2 h (early exponential). The bacteria were then challenged with brevicidine (20 μg mL^−1), laterocidine (20 μg mL^−1), or polymyxin B (10 μg mL^−1) at ten times the MIC at room temperature without shaking. An untreated sample of cells was used as a negative control. At intervals, 10 μL aliquots were removed, centrifuged at 10,000 × g for 1 min and resuspended in 1.0 mL of sterile PBS. Tenfold serially diluted suspensions were plated on MHB agar plates and incubated at 37 °C overnight. Colonies were counted and the number of c.f.u. per mL was calculated. For analysis of lysis, 300 μL of culture (OD600 = 1.0) were treated with antibiotics at ten times the MIC for 24 h. Experiments were performed in triplicate.

Data set [1] concerns K. pneumoniae NRRL-B-3521. It counts as cell-based, Klebsiella pneumoniae. As to conditions: NRRL-B-3521, 24 h. How it is done: (§2) MIC was determined by broth microdilution according to CLSI guidelines. The test medium for most species was Mueller–Hinton broth (MHB). Bacteria were grown overnight to early stationary phase and adjusted in MHB to 5.0 × 10^5 c.f.u. mL^−1 in the wells of 96-well microtiter plates (Falcon® 96-Well Flat-Bottom Microplate, Tissue Culture-Treated), mixed with varying concentrations of test compounds and incubated at 37 °C for 24 h. Cell growth was evaluated by measuring the optical density at 595 nm (Thermo Scientific Multiskan FC multiplate photometer) (Waltham, MA, USA), and the MIC was defined as the lowest compound concentration at which no bacterial growth was observed. MHBs containing 10% fetal bovine serum (Gibco), 21 mM MgCl, or 1.0 mg mL^−1 LPS (lipopolysaccharides from E. coli O55:B5, Sigma-Aldrich) was used to test their inhibitory effects.

Data set [2] has as its system E. coli ATCC 25922. The data set is described as follows: Resistance acquisition during serial passaging. The settings on record: subinhibitory concentrations, 30-day period, MHB, 37 °C, quadruplicate. It counts as cell-based, Escherichia coli. How it is done: (§3) E. coli ATCC 25922 was inoculated into MHB overnight at 37 °C with continuous shaking. Cells were diluted 10,000 times in MHB to about 1 × 10^6 c.f.u. mL^−1. Ten µL aliquots were drawn to a 96-well plate containing 90 µL of serially diluted brevicidine, laterocidine, and ciprofloxacin, at final concentrations of 0.5×, 1×, 1.5×, 2×, and 4× MIC. […] Plates with bacteria were incubated at 37 °C without shaking. […] This process was repeated for 30 days, and the final MIC was confirmed by the same antibacterial assay as the one described above. The experiment was performed in quadruplicate, and on each day, the sample that developed the highest resistance was measured to plot the curve. For single-step resistance, E. coli ATCC 25922 cells at 10^8 c.f.u. were plated onto Mueller–Hinton agar containing 4× MIC of brevicidine.

A further data set deals with Saccharomyces cerevisiae. It counts as cell-based. As to conditions: 24 h.
Data set [3] concerns E. coli ATCC 25922. As to conditions: 10^8 c.f.u. plated on Mueller–Hinton agar at four times the MIC, 48 h, 37 °C. How it is done: as §3
Another data set relates to Bacillus subtilis 168. The data set is described as follows: MIC by broth microdilution. The settings on record: Supplementary Table 1; Bs = B. subtilis 168. It counts as cell-based. How it is done: as §2
(Broth dilution looks for growth in wells or tubes with falling amounts of substance.)

The subject of a further data set is Acinetobacter baumannii. The data set is described as follows: MIC by broth microdilution. It counts as cell-based. As to conditions: Supplementary Table 1. How it is done:
as §2

Data set [4] deals with Enterobacter cloacae NRRL-B-413. The data set is described as follows: MIC by broth microdilution. It counts as cell-based. The settings on record: Supplementary Table 1; En = Enterobacter cloacae NRRL-B-413. How it is done:
as §2

Data set [5] has as its system Klebsiella pneumoniae NRRL-B-408. The data set is described as follows: MIC by broth microdilution. It counts as cell-based. The settings on record: Supplementary Table 1; Kp = Klebsiella pneumoniae NRRL-B-408. How it is done: as §2
In the next data set the test system is Human HeLa cells. The settings on record: concentrations up to 128 μg mL^−1, 48 h, 37 °C, MTT, absorbance 570 nm.
Data set [6] concerns E. coli TOP10 cells. Kind of data set: Time-kill assay. It counts as cell-based, Escherichia coli. How it is done:
as §1

The next data set concerns Candida albicans. It counts as cell-based. As to conditions: 24 h.
The test system of a further data set is E. cloacae NRRL-B-425. It counts as cell-based, Enterobacter cloacae. As to conditions: NRRL-B-425, 24 h. How it is done: as §2
The test system of data set [7] is Escherichia coli ATCC 25922. The data set is described as follows: microbe, parasite or virus in culture. The settings on record: Supplementary Table 1; Ec = Escherichia coli ATCC 25922. It counts as cell-based. How it is done:
as §2

A short description of data set [8]: Peptide binding to LPS by isothermal titration calorimetry. Also noted: species or system Escherichia coli. As to conditions: 37 °C. How it is done: Microcalorimetric experiments of peptide binding to LPS were performed on an MCS isothermal titration calorimeter (Microcal, Northampton, MA) at 37 °C. LPS was prepared as a 50 µM aqueous suspension in 20 mM HEPES buffer (pH 7.0) by suspension, sonication, and temperature cycling between 5 and 70 °C. This suspension was stored at 4 °C overnight prior to use. Aliquots of 100 µM peptide solutions (brevicidine and polymyxin B) were prepared in the same buffer and all solutions were degassed prior to use by stirring under vacuum for 5 min at 37 °C. After thermal equilibration, 5 µL aliquots of the peptide solution were added every 3 min into the lipid-containing cell at 37 °C with constant stirring. The change in heat during the titration steps was registered in real time and raw data were processed using the Origin® 7 software provided with the instrument. In control experiments, the corresponding peptide solution (or LPS solution) was injected into the buffer without LPS (or without peptide).

In data set [9] the test system is E. coli TOP10 cells. The data set is described as follows: Bacterial growth kinetics. It counts as cell-based, Escherichia coli. The settings on record: OD600 of cells exposed to antibiotics (Fig. 4: two times the MIC). How it is done: A single fresh colony of E. coli TOP10 cells was inoculated into MHB (5 mL) and grown with shaking at 225 rpm overnight. The bacteria were diluted to 1 × 10^5 c.f.u. mL^−1 in fresh MHB, grown […] to early log-phase (OD600 = 0.15) and treated with the antibiotics of interest in the wells of a 96-well plate. Final antibiotic concentrations varied from one to eight times the MIC. The plate was then incubated at 30 °C overnight, with OD600 measurements taken every 30 s.

Data set [10] relates to Colistin-resistant E. coli (E. coli ATCC 25922 carrying mcr-1). The data set is described as follows: MIC by broth microdilution. It counts as cell-based, Escherichia coli. As to conditions: MHB, 37 °C, 24 h. How it is done: as §2

≈ marks a conversion by molar mass, not a printed value. Read-outs that look alike come from different tables or passages of the source. Where a SMILES comes first, the peptide text is derived from it. Bridges are numbered along the chain shown (N, C = ends). [ ]: non-standard residue; d: D form. The star is where a group is joined. ξ: configuration not given here. Hexanoyl(4ξ-Me) = CCC(C)CCC(=O)*; dOrn = NCCC[C@@H](N)C(=O)O; Orn = NCCC[C@H](N)C(=O)O

This is an account of results in publication PMC6095874, “Discovery of cationic nonribosomal peptides as Gram-negative antibiotics through global genome mining” (Nature Communications, 2018).

Procedure for Human HeLa cells: Human HeLa cells were used in the assay. Ninety μL of 1 × 10^5 mL^−1 cells were placed into the wells of 96-microwell plates. After 12 h, 10 μL of a medium containing test compounds at various concentrations were added to the cells which were then incubated at 37 °C for 48 h. Afterward, the supernatant was removed and 20 μL of MTT (3-(4,5-Dimethylthiazol-2-yl)-2,5-Diphenyltetrazolium Bromide) (2.5 mg mL^−1) in PBS were added to each well. After incubation at 37 °C for 3 h, 80 μL of dimethyl sulfoxide (DMSO) were added to each well and incubated for an additional 15 min. The absorbance was then measured at 570 nm with a Thermo Scientific Multiskan FC multiplate photometer.

For the compound `CCC(C)CCC(=O)N[C@H](CC(N)=O)C(=O)N[C@H](Cc1ccc(O)cc1)C(=O)N[C@H](Cc1c[nH]c2ccccc12)C(=O)N[C@H](CCCN)C(=O)N[C@@H](CCCN)C(=O)NCC(=O)N[C@H](CCCN)C(=O)N[C@@H](Cc1c[nH]c2ccccc12)C(=O)N[C@@H]1C(=O)N[C@@H]([C@@H](C)CC)C(=O)NCC(=O)N[C@@H](CO)C(=O)O[C@@H]1C` (some centres unmarked) [Compound 1, brevicidine] ({Hexanoyl(4ξ-Me)}-[dN][dY][dW][dOrn][Orn]G[dOrn]WTIGS; ester 9-C), the “lysis of E. coli cells” value in the data set with E. coli was “completely lysed”. The MIC (as a rule, the lowest concentration that inhibits growth of the organism) in data set [1] is 4 µg/mL (≈ 2.63 µM); against Saccharomyces cerevisiae it was greater than 64 µg/mL; with Candida albicans, greater than 64 µg/mL; in the data set with E. cloacae NRRL-B-425, 2 µg/mL (≈ 1.32 µM); in data set [10], 2 µg/mL (≈ 1.32 µM). Besides, in the data set with E. coli ATCC 25922 [2], the “resistance development during serial passaging” value was “did not develop resistance”. Further, the values for the single-step resistance result in the data set on E. coli ATCC 25922 [3] and in the data set with E. coli ATCC 25922 [3] (listed as brevicidine) were “did not develop resistance” and “no resistant colonies were detected”, respectively. Further, the “MIC, Bs” value in the data set on Bacillus subtilis 168 amounted to 32 µg/mL (≈ 21.1 µM). In the data set on Acinetobacter baumannii, the “MIC, Ab” value was found to be 16 µg/mL (≈ 10.5 µM). Moreover, the “MIC, En” value in data set [4] is 2 µg/mL (≈ 1.32 µM). In addition, the “MIC, Kp” value in [5] amounted to 2 µg/mL (≈ 1.32 µM). The “toxicity against the human cell line HeLa” value in the data set with Human HeLa cells is given as “nor showed significant toxicity”. Further, the “bactericidal action against E. coli” value in the data set with E. coli TOP10 cells [6] (as revealed by growth kinetics, time-kill assay and lysis assay) is recorded as “bactericidal”. In addition, the “cell viability in time-kill assay” value in the data set on E. coli TOP10 cells [6] (ten times the MIC, early exponential cells, room temperature, c.f.u. counts, triplicate) is given as “significant reduction after 30 min”. Besides, in [7], the “MIC, Ec” value worked out at 2 µg/mL (≈ 1.32 µM). Besides, the “binding to LPS (ITC)” value in [8] (20 mM HEPES pH 7.0) is listed as “strong binding to LPS”. Besides, the Kd (as a rule, a measure of binding affinity in units of concentration) in data set [8] (ITC, 50 µM LPS in 20 mM HEPES pH 7.0, 100 µM peptide, read-out: dissociation constant Kd for LPS) came out at 6.5 µM. Besides, in the data set with E. coli TOP10 cells [9], the “growth kinetics of E. coli cells exposed to compound” value is “grew at a reduced rate for 30 min”.
